The structures appear in SMILES notation. ≈ marks a conversion by molar mass, not a printed value. Counter-ions that a name gives are not always drawn. Like-named read-outs stand apart in the source and are kept apart here.

The subject of this test is pathogenic bacteria. The test is described as follows: MIC by microdilution broth method (NCCLS M7-A4), in vitro antibacterial activity. Format: cell-based. An outline of the steps: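 MIC read after 35 °C incubation for 16–20 h relative to drug-free growth wells. Cation-adjusted Mueller-Hinton broth with two-fold compound dilutions, organisms at roughly 5×10^4 CFU/well final. Method follows NCCLS document M7-A4.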

The mark [1] stands for this setting: Staphylococcus aureus, Organism A: Staphylococcus aureus OC4172, read-out: MIC.
The mark [2] stands for this setting: Streptococcus pneumoniae, ATCC49619, Organism E: Streptococcus pneumoniae ATCC 49619, read-out: MIC.
Setting [3] is: Streptococcus pneumoniae, Organism C: fluoroquinolone-resistant clinical isolate of Streptococcus pneumoniae (QRDR amino acid substitutions).
Setting [4] is: Streptococcus pneumoniae, Organism D: fluoroquinolone-resistant clinical isolate of Streptococcus pneumoniae (QRDR amino acid substitutions).
The mark [5] stands for this setting: Streptococcus pneumoniae, Organism B: fluoroquinolone-resistant clinical isolate of Streptococcus pneumoniae (QRDR amino acid substitutions).

For the molecule `N#CC(CN)=C1CCN(c2cc3c(cc2F)c(=O)c(C(=O)O)cn3C2CC2)CC1` [Compound 285, 7-[4-(2-Amino-1-cyano-ethylidene)-piperidin-1-yl]-1-cyclopropyl-6-fluoro-4-oxo-1,4-dihydro-quinoline-3-carboxylic Acid], the MIC under setting [1] is 0.25 µg/mL (≈ 0.631 µM), the MIC under setting [2] is 1 µg/mL (≈ 2.52 µM), the MIC under setting [3] is 8 µg/mL (≈ 20.2 µM) and the MIC under setting [4] was greater than 16 µg/mL.

For `O=C(O)c1cn(C2CC2)c2nc(N3CC(=C(Cl)CO)C3)c(F)cc2c1=O` [Compound 357, 7-[3-(1-Chloro-2-hydroxy-ethylidene)-azetidin-1-yl]-1-cyclopropyl-6-fluoro-4-oxo-1,4-dihydro-[1,8]naphthyridine-3-carboxylic Acid], the MIC turned out to be 0.25 µg/mL (≈ 0.658 µM) under setting [1]; 1 µg/mL (≈ 2.63 µM) under setting [2]; 8 µg/mL (≈ 21.1 µM) under setting [5]; 16 µg/mL (≈ 42.1 µM) under setting [3]; 4 µg/mL (≈ 10.5 µM) under setting [4].

With `C[C@H]1COc2c(N3CC(=CCN)C3)c(F)cc3c(=O)c(C(=O)O)cn1c23` [Compound 365, (S)-9-[3-(2-Amino-ethylidene)-azetidin-1-yl]-8-fluoro-3-methyl-6-oxo-2,3-dihydro-6H-1-oxa-3a-aza-phenalene-5-carboxylic Acid], the MIC runs as follows: under setting [1], 0.12 µg/mL (≈ 0.334 µM); under setting [2], 2 µg/mL (≈ 5.57 µM); under setting [3], greater than 16 µg/mL; under setting [4], greater than 16 µg/mL.

Regarding `NCCNCC(Cl)=C1CCN(c2nc3c(cc2F)c(=O)c(C(=O)O)cn3C2CC2)CC1.O=C(O)C(F)(F)F` [Compound 289, 7-{4-[2-(2-Amino-ethylamino)-1-chloro-ethylidene]-piperidin-1-yl}-1-cyclopropyl-6-fluoro-4-oxo-1,4-dihydro-[1,8]naphthyridine-3-carboxylic Acid Trifluoroacetic Acid Salt], the MIC by setting is: under setting [1], 0.5 µg/mL; under setting [2], 0.25 µg/mL; under setting [3], 1 µg/mL; under setting [4], 2 µg/mL.

In the case of `NC/C(F)=C1\COCCN(c2nc3c(cc2F)c(=O)c(C(=O)O)cn3C2CC2)C1` [Compound 498, (E)-7-[6-(2-Amino-1-fluoro-ethylidene)-[1,4]oxazepan-4-yl]-1-cyclopropyl-6-fluoro-4-oxo-1,4-dihydro-[1,8]naphthyridine-3-carboxylic acid], the MIC reads like this: under setting [1], 1 µg/mL (≈ 2.46 µM); under setting [2], 16 µg/mL (≈ 39.4 µM); under setting [5], 4 µg/mL (≈ 9.84 µM); under setting [3], greater than 16 µg/mL; under setting [4], greater than 16 µg/mL.

For the molecule `COc1c(N2CCC(=C(Cl)CN)CC2)c(F)cc2c(=O)c(C(=O)O)cn([C@@H]3C[C@@H]3F)c12` [Compound 262, 7-[4-(2-Amino-1-chloro-ethylidene)-piperidin-1-yl]-6-fluoro-(1R,2S)-1-(2-fluoro-cyclopropyl)-8-methoxy-4-oxo-1,4-dihydro-quinoline-3-carboxylic acid], the MIC is no more than 0.015 µg/mL under setting [1], 0.25 µg/mL (≈ 0.551 µM) under setting [2], 1 µg/mL (≈ 2.2 µM) under setting [3] and 1 µg/mL (≈ 2.2 µM) under setting [4].

In the case of `COc1c(N2CCC/C(=C(/Cl)CN)C2)c(F)cc2c(=O)c(C(=O)O)cn([C@@H]3C[C@@H]3F)c12` [Compound 449, (Z)-7-[3-(2-Amino-1-chloro-ethylidene)-piperidin-1-yl]-6-fluoro-(1R,2S)-1-(2-fluoro-cyclopropyl)-8-methoxy-4-oxo-1,4-dihydro-quinoline-3-carboxylic acid], the minimum inhibitory concentration (MIC) reads like this: under setting [1], 0.25 µg/mL (≈ 0.551 µM); under setting [2], 2 µg/mL (≈ 4.41 µM); under setting [3], greater than 16 µg/mL; under setting [4], 16 µg/mL (≈ 35.3 µM).

As for `N#CC(CN)=C1CCN(c2c(F)cc3c(=O)c(C(=O)O)cn(C4CC4)c3c2OC(F)F)CC1` [Compound 437, 7-[4-(2-Amino-1-cyano-ethylidene)-piperidin-1-yl]-1-cyclopropyl-6-fluoro-8-difluoromethoxy-4-oxo-1,4-dihydro-quinoline-3-carboxylic Acid], the minimal inhibitory concentration (MIC) under setting [1] is 0.06 µg/mL (≈ 0.13 µM), the MIC under setting [2] came out at 0.12 µg/mL (≈ 0.259 µM), the MIC under setting [3] was 1 µg/mL (≈ 2.16 µM) and inhibition of growth under setting [4] (MIC) required 0.25 µg/mL (≈ 0.541 µM).

Regarding `NC/C=C1\CCCN(c2c(F)cc3c(=O)c(C(=O)O)cn(-c4nc(N)c(F)cc4F)c3c2Cl)C1` [Compound 414, (E)-1-(6-Amino-3,5-difluoro-pyridin-2-yl)-7-[3-(2-amino-ethylidene)-piperidin-1-yl]8-chloro-6-fluoro-4-oxo-1,4-dihydro-quinoline-3-carboxylic acid], the MIC is, setting by setting: under setting [1], 0.25 µg/mL (≈ 0.506 µM); under setting [2], 2 µg/mL (≈ 4.05 µM); under setting [3], greater than 16 µg/mL; under setting [4], greater than 16 µg/mL.

Consider `C[C@H]1COc2c(N3CC(=C(F)CN)C3)c(F)cc3c(=O)c(C(=O)O)cn1c23` [Compound 276, 9-[3-(2-Amino-1-fluoro-ethylidene)-azetidin-1-yl]-8-fluoro-(3S)-3-methyl-6-oxo-2,3-dihydro-6H-1-oxa-3a-aza-phenalene-5-carboxylic acid], for which the MIC runs as follows: under setting [1], no more than 0.015 µg/mL; under setting [2], 0.25 µg/mL (≈ 0.663 µM); under setting [5], 0.5 µg/mL (≈ 1.33 µM); under setting [3], 2 µg/mL (≈ 5.3 µM); under setting [4], 4 µg/mL (≈ 10.6 µM).

For the molecule `CNCC(Cl)=C1CCN(c2c(F)cc3c(=O)c(C(=O)O)cn(C4CC4)c3c2OC)CC1` [Compound 72, 7-[4-(1-Chloro-2-methylamino-ethylidene)-piperidin-1-yl]-1-cyclopropyl-6-fluoro-8-methoxy-4-oxo-1,4-dihydroquinoline-3-carboxylic Acid Trifluoroacetic Acid Salt], the MIC runs as follows: (Staphylococcus aureus, Organism A: Staphylococcus aureus OC4172) 0.03 µg/mL; (Streptococcus pneumoniae, ATCC49619, Organism E: Streptococcus pneumoniae ATCC 49619) 0.12 µg/mL; under setting [5], 0.25 µg/mL; under setting [3], 0.5 µg/mL; under setting [4], 0.25 µg/mL.

For `O=C(O)C(F)(F)F.O=C(O)c1cn(C2CC2)c2nc(N3CCC(=C(F)CN4CCNCC4)CC3)c(F)cc2c1=O` [Compound 294, 1-Cyclopropyl-6-fluoro-7-[4-(1-fluoro-2-piperazin-1-yl-ethylidene)-piperidin-1-yl]-4-oxo-1,4-dihydro-[1,8]naphthyridine-3-carboxylic Acid Trifluoroacetic Acid Salt], the MIC under setting [1] was 2 µg/mL; the minimal inhibitory concentration (MIC) under setting [2] came out at 8 µg/mL; the MIC under setting [5] was greater than 16 µg/mL; the minimum inhibitory concentration (MIC) under setting [3] was greater than 16 µg/mL; the MIC under setting [4] was greater than 16 µg/mL.

In the case of `COc1c(N2CC(=C(F)CN)C2)c(F)cc2c(=O)c(C(=O)O)cn(C3CC3)c12` [Compound 273, 7-[3-(2-amino-1-fluoro-ethylidene)-azetidin-1-yl]-1-cyclopropyl-6-fluoro-8-methoxy-4-oxo-1,4-dihydro-quinoline-3-carboxylic acid], the MIC under setting [1] was 0.03 µg/mL (≈ 0.0767 µM), the MIC under setting [2] is 4 µg/mL (≈ 10.2 µM), the MIC under setting [5] was found to be 4 µg/mL (≈ 10.2 µM) and the MIC under setting [3] was 0.5 µg/mL (≈ 1.28 µM).

For `O=CN1CCN(CC(Cl)=C2CCN(c3nc4c(cc3F)c(=O)c(C(=O)O)cn4C3CC3)CC2)CC1` [Compound 291, 7-{4-[1-Chloro-2-(4-formyl)-piperazin-1-yl-ethylidene]-piperidin-1-yl}-1-cyclopropyl-6-fluoro-4-oxo-1,4-dihydro-[1,8]naphthyridine-3-carboxylic Acid Trifluoroacetic Acid Salt], the MIC is 2 µg/mL under setting [1], 8 µg/mL under setting [2], greater than 16 µg/mL under setting [3] and 8 µg/mL under setting [4].

Regarding `COc1c(N2CCC(=C(Br)CN)CC2)c(F)cc2c(=O)c(C(=O)O)cn(C3CC3)c12` [Compound 204, 7-[4-(2-Amino-1-bromo-ethylidene)-piperidin-1-yl]-1-cyclopropyl-6-fluoro-8-methoxy-4-oxo-1,4-dihydro-quinoline-3-carboxylic acid], the MIC was 0.25 µg/mL (≈ 0.52 µM) under setting [1]; 0.12 µg/mL (≈ 0.25 µM) under setting [2]; 0.5 µg/mL (≈ 1.04 µM) under setting [5]; 0.5 µg/mL (≈ 1.04 µM) under setting [3]; 0.5 µg/mL (≈ 1.04 µM) under setting [4].

Turning to `CNCC=C1CCN(c2c(F)cc3c(=O)c(C(=O)O)cn(C4CC4)c3c2OC)CC1` [Compound 221, 1-Cyclopropyl-6-fluoro-8-methoxy-7-[4-(2-methylamino-ethylidene)-piperidin-1-yl]-4-oxo-1,4-dihydro-quinoline-3-carboxylic Acid Trifluoroacetic Acid Salt], the MIC is, setting by setting: under setting [5], 2 µg/mL; under setting [3], 4 µg/mL; under setting [4], 4 µg/mL.

Take `COc1c(N2CCC/C(=C(\C)CN)C2)c(F)cc2c(=O)c(C(=O)O)cn([C@@H]3C[C@@H]3F)c12` [Compound 410, (Z)-7-[3-(2-Amino-1-methyl-ethylidene)-piperidin-1-yl]-6-fluoro-(1R,2S)-1-(2-fluoro-cyclopropyl)-8-methoxy-4-oxo-1,4-dihydro-quinoline-3-carboxylic acid]: the MIC is, setting by setting: under setting [1], no more than 0.015 µg/mL; under setting [2], 0.06 µg/mL (≈ 0.138 µM); under setting [3], 0.5 µg/mL (≈ 1.15 µM); under setting [4], 1 µg/mL (≈ 2.31 µM).

For `NC/C(Cl)=C1\CCCN(c2c(F)cc3c(=O)c(C(=O)O)cn(-c4nc(N)c(F)cc4F)c3c2Cl)C1` [Compound 450, (Z)-7-[3-(2-Amino-1-chloro-ethylidene)-piperidin-1-yl]-1-(6-amino-3,5-difluoro-pyridin-2-yl)-8-chloro-6-fluoro-4-oxo-1,4-dihydro-quinoline-3-carboxylic acid], the MIC under setting [1] turned out to be 0.12 µg/mL (≈ 0.227 µM), the MIC under setting [2] was 0.5 µg/mL (≈ 0.946 µM), the MIC under setting [3] was 8 µg/mL (≈ 15.1 µM) and the MIC under setting [4] is 8 µg/mL (≈ 15.1 µM).

In the case of `O=C(O)c1cn(C2CC2)c2cc(N3CCC(=C(Cl)CN4CCCCC4)CC3)c(F)cc2c1=O` [Compound 300, 7-[4-(1-Chloro-2-piperidin-1-yl-ethylidene)-piperidin-1-yl]-1-cyclopropyl-6-fluoro-4-oxo-1,4-dihydro-quinoline-3-carboxylic acid], the MIC reads like this: under setting [1], 0.5 µg/mL (≈ 1.05 µM); under setting [2], 2 µg/mL (≈ 4.22 µM); under setting [5], greater than 16 µg/mL; under setting [3], greater than 16 µg/mL; under setting [4], 2 µg/mL (≈ 4.22 µM).
